This is an account of results in paper PMC11653107, “Development of a UPLC-MS/MS method for the determination of sulfatinib and its no interaction with myricetin in rats” (Frontiers in Pharmacology, 2024).

The structures appear in SMILES notation. Where two headings read alike, the source gives them in different places.

By Tmax is commonly meant the time from dosing to the highest level. Broadly, the AUC(0-t) is the area under the concentration-time curve up to a stated or last time point. Read a low AUC(0-t) as less exposure. The term AUC(0-inf) denotes the area under the concentration-time curve extrapolated to infinity. Lower therefore signals low exposure. The CL/F is the apparent clearance, not corrected for the fraction that reaches the circulation. The Cmax is the peak of the concentration-time curve. In general, half-life refers to the time in which the quantity being followed falls by half. Lower therefore signals fast loss. As usually defined, the AUC is the area under the concentration-time curve, a measure of exposure.

Data set [1] is described as follows: Pharmacokinetics of sulfatinib in rats, DDI study with myricetin (UPLC-MS/MS of plasma). It counts as in vivo, Sprague-Dawley (SD) rats. As for the experimental part:
In the present assay, a Waters Xevo TQS triple quadrupole tandem mass spectrometer (Milford, MA, United States), connected to a Waters Acquity UPLC I class system (Milford, MA, United States) was applied in the method. The parameters of mass spectrometry were determined as follows before analysis: capillary voltage 2.0 kV, desolvation gas 1000 L/h, collision gas 0.15 mL/min, desolvation temperature 600°C and conical gas 150 L/h. Seperations of sulfatinib and IS were done on an Acquity UPLC BEH C18 (2.1 mm × 50 mm, 1.7 µm) set at 40°C. The autosampler used to analyze all samples was held at 10°C. The measurements were conducted using a multiple reaction monitoring (MRM) scanning mode with an electrospray ionization (ESI) source in positive ion mode. At a flow rate of 0.40 mL/min, the mobile phase was consisted of acetonitrile (A) and 0.1% formic acid aqueous solution (B), with a linear gradient scheme as follows: 0–0.5 min, A/B = 10/90%; 0.5–1.0 min, A/B = 90/10%; 1.0–1.4 min, A/B = 90/10%; 1.4–1.5 min, A/B = 10/90%; 1.5–2.0 min, A/B = 10/90%. The parameters optimized for mass spectrometry of sulfatinib and IS included cone voltages of 20 V and 30 V, and collision energies of 25 eV and 28 eV, respectively. The parent and daughter ions of sulfatinib and IS were m/z 480.98 → 329.02 and m/z 426.87 → 369.84, respectively (as indicated in Table 1).
The protein was precipitated by mixing 300 µL of acetonitrile and 10 µL of IS working solution into 100 µL of plasma. After a full vortex for 2.0 min, the mixture was centrifuged at 4°C for 10 min (13,000 rpm). Afterwards, the supernatant of 100 µL was moved into a vial, with a 2 µL injected and analyzed by UPLC-MS/MS.
Ten male Sprague-Dawley (SD) rats for this experiment, weighting 200 ± 10 g, were purchased from the Experimental Animal Center of The First Affiliated Hospital of Wenzhou Medical University (Zhejiang, China). Prior to the start of the investigation, all rats were domesticated under laboratory conditions for 1 week to minimize their suffering. The animals were kept in an appropriate environment (temperature, humidity, light conditions, freely available food and water). The experimental process of the animals was strictly adhered to the regulations for the care and use of laboratory animals as reviewed and approved by the Ethics Committee of The First Affiliated Hospital of Wenzhou Medical University (Wenzhou, China). The preparation of sulfatinib for gavage was carried out using 0.5% carboxymethylcellulose sodium (CMC-Na) solution. Half an hour after the administration of either myricetin or the same dose of 0.5% CMC-Na solution, 10 rats were simultaneously administered orally with sulfatinib (30 mg/kg). At 0.25, 0.5, 0.75, 1, 1.5, 2, 3, 4, 6, 8, 12, 24, 48 h, approximately 0.3 mL of blood was obtained from the tail vein of SD rats and transferred into heparinized polyethylene tubes. A 100 µL of plasma was obtained by centrifuging the blood at 13,000 rpm for 8 min and stored at −80°C for sample treatment.
Origin 9.0 (Originlab Inc., Northampton, MA, United States) was used in this experiment to plot the mean concentration of sulfatinib versus time in plasma. DAS software (Drug and Statistics, Version 3.0, China) was applied to fit the non-compartmental model of sulfatinib, and the main pharmacokinetic parameters of sulfatinib were obtained. Pharmacokinetics were compared for each group using SPSS software (version 24.0, Chicago, United States, SPSS Inc.) using the independent samples t-test. At p < 0.05, the difference was significant.

Another data set has as its system CYP3A4. Further details: method as in Li et al., 2018. The note with it: studies in rats; ref Li et al., 2018; cited from earlier work.
A further data set has as its system CYP2C9. Also on record: method as in Li et al., 2018. The note with it: studies in rats; ref Li et al., 2018; cited from earlier work.
Data set [2] is described as follows: Stability of sulfatinib in rat plasma QCs under storage and processing conditions. The note with it: analyzer 10°C for 4 h, −80°C for 3 weeks, room temperature for 3 h, three freeze-thaw cycles; QCs 2, 800, 1,600 ng/mL. The procedure: The stability was investigated by repeating the assay five times under different storage conditions for three rat plasma QCs (2, 800 and 1,600 ng/mL). The conditions included stability in the analyzer (4 h, 10°C), long-term storage ([…], 3 weeks), short-term storage (3 h, room temperature) and freeze-thaw cycles (three complete times).

Details of data set [3]: method as in Li et al., 2020a. The note with it: healthy subjects, single oral intake of 300 mg; ref Li et al., 2020a; cited from earlier work.
For data set [4] the following is noted: cited from earlier work.
The test system of data set [5] is cytochrome P450 3A4 (CYP3A4). Further details: method as in Li et al., 2020b. The note with it: in vitro; ref Li et al., 2020b; cited from earlier work.
The mark [6] stands for this setting: male, Sprague-Dawley, rat, in vivo, po, 30 mg/kg.

For `O=c1c(O)c(-c2cc(O)c(O)c(O)c2)oc2cc(O)cc(O)c12` [myricetin, Myricetin], the “effect of myricetin on AUC0→∞ and Cmax of sulfatinib” value in data set [1] (rats, 50 mg/kg myricetin orally half an hour before 30 mg/kg sulfatinib, P > 0.05) is “no significant effect”. The “inhibition of CYP3A4” value with CYP3A4 is listed as “inhibited”. Further, the “inhibition of CYP2C9” value in the data set with CYP2C9 is listed as “inhibited”.

On to `Cc1cc2cc(Oc3ccnc(Nc4cccc(CS(=O)(=O)NCCN(C)C)c4)n3)ccc2[nH]1` [Sulfatinib], for which, in data set [1] (setting [6]), the AUC0→t was 9,168.6 ± 2,531.4 ng/mL·h, the “AUC0→∞” value is reported as 9,171.6 ± 2,532.4 ng/mL·h, the CLz/F stood at 58.3 ± 18.3 mL/min/kg and the Tmax was determined as 4.4 ± 0.9 h. The same compound registered an AUC(0-t) in data set [1] (male, Sprague-Dawley, rat, in vivo, po, 30 mg/kg, AUC0→t) of 9250 ng·h/mL. The AUC(0-inf) in data set [1] (male, Sprague-Dawley, rat, in vivo, po, 30 mg/kg, AUC0→∞) amounted to 9260 ng·h/mL. In addition, the apparent clearance (CL/F) in data set [1] (male, Sprague-Dawley, rat, in vivo, po, 30 mg/kg, CLz/F) is 55 mL/min/kg. For the same compound, the Cmax in data set [1] (male, Sprague-Dawley, rat, in vivo, po, 30 mg/kg, Cmax) is 1040 ng/mL. In data set [1] (male, Sprague-Dawley, rat, in vivo, po, 30 mg/kg, Tmax), the Tmax came out at 3.4 ± 1.7 h. For the same compound, in data set [1] (male, Sprague-Dawley, rat, in vivo, po, 30 mg/kg, t1/2), the half-life was 3.64 h. Further, in data set [1] (rat, in vivo, po, 30 mg/kg), the AUC was 8970 ng·h/mL and the “time to Cmax” value is “approximately 3.8 h”. Besides, in data set [2], the “stability in rat plasma” value is listed as “satisfied”. In data set [3], the AUC was 2670 ng·h/mL, the Cmax was 205 ng/mL, the t1/2 is reported as 17.1 h and the “time to Cmax” value is on record as “approximately 2 h”. In data set [4] (after oral administration, ref Li et al., 2020b), the “serum level of the original drug” value was “about 40.3%”. The fecal excretion in data set [4] (excretion route mainly fecal, ref Lu et al., 2024, Xu et al., 2017, Li et al., 2020a) was 88%. In addition, the “enzyme mediating the metabolism” value in data set [5] was “major enzyme mediating the metabolism”.
